PMC9813109, “Phase I dose-escalation study of milademetan in patients with relapsed or refractory acute myeloid leukemia” (International Journal of Hematology, 2022)
Entries after “also recorded” stand apart in the source; their conditions may differ.

Legend:
patients with R/R AML = test system: patients with R/R AML
Procedure: This phase I, open-label, and dose-escalation study conducted at eight centers in Japan recruited patients with R/R AML. Four fixed-dose milademetan schedules were planned (Supplementary Fig. 1A). Increases in the milademetan dose were guided by the modified continual reassessment method (mCRM), with a planned maximum dose of 160 mg/day (Supplementary Fig. 1B). Each cohort (90, 120, and 160 mg) consisted of three to six patients. The first cycle was defined as the dose-limiting toxicity (DLT) evaluation period where patients required hospitalization. The number of treatment cycles was not specified, and the study treatment for each patient was continued unless the discontinuation criteria were met.
In this study, we only assessed the patients with schedule A‒milademetan was administered once daily on days 1–14 followed by a 14-day rest in a 28-day cycle.
Relative dose intensity (in percentage) was calculated as a proportion of dose intensity/planned dose intensity (proportion of dose administered/total treatment duration). Safety assessments were completed by documenting the AEs, ECOG PS, laboratory data, body weight, vital signs, and the results of 12 lead ECGs. Serious adverse events (SAEs) were defined as any AEs that caused mortality, were life-threatening, required hospitalization or prolonged existing hospitalization, caused disability or incapacity, or represented other medical conditions. Patients were followed up until the AEs resolved.
Patients were evaluated for DLT during the first 28 days of cycle 1, defined as any nonhematological AEs of grade ≥ 3 unless attributed to the primary disease course, complications, or concomitant medications. Nonhematological toxicities classified as DLTs were grade 4 AST/ALT, grade 3 AST/ALT lasting ≥ 3 days, grade 3 AST/ALT with grade ≥ 2 total bilirubin, or an inability to complete at least 75% of the prescribed milademetan doses in cycle 1 (28 days) due to grade ≥ 2 events. Hematological toxicities classified as DLTs included failure to recover neutrophil and platelet counts to ≥ 500/mm^3 and ≥ 20,000/mm^3, respectively, that delayed the initiation of cycle 2 for > 2 weeks. DLT evaluation findings were used to determine the MTD. AEs that were not classified as DLTs included grade 3 fatigue of < 3 days; grade 3 nausea or vomiting that resolved to grade ≤ 2 within 2 days after antiemetic therapy; grade 3 diarrheas that resolved to grade ≤ 2 within 2 days after antidiarrheal therapy; and alopecia, febrile neutropenia, and transient laboratory abnormalities either without symptoms or requiring continuous treatment. Examples of non-DLT AEs were grade ≥ 3 alkaline phosphatases, uric acid, amylase, lipase, or hyponatremia that resolved within 72 h of onset. The Common Terminology Criteria for Adverse Events (version 5.0) were used for grading, and each AE was coded using the Medical Dictionary for Regulatory Activities (version 21.1). Criteria for drug dose reduction or interruption are described in Supplementary material.
All patients who received at least one milademetan dose were included in the safety analysis set. […] The efficacy analysis set included all patients who received at least one milademetan dose and underwent efficacy evaluation at least once after treatment initiation. […] The biomarker analysis set included all patients who received at least one milademetan dose, whose specimens were collected for biomarker studies, and who had available measurement data. Following the first cycle, doses for subsequent cohorts were guided by an mCRM based on a Bayesian logistic regression model incorporating the escalation with the overdose control principle, clinical evaluation of the toxicological profile, and pharmacokinetics and pharmacodynamics information.

tumor cells = test system: tumor cells; design: method as in PMID 31310659, PMID 30724592; details: in vitro studies; cited from earlier work
[1] = test system: hematologic malignancies like R/R AML and high-risk myelodysplastic syndrome; details: QD 14/28-day schedule, USA phase I, ref NCT02319369, data not published; cited from earlier work

## CC1(C)CCC2(CC1)N[C@@H](C(=O)N[C@@H]1CC[C@@H](C(N)=O)OC1)[C@H](c1ccnc(Cl)c1F)[C@]21C(=O)Nc2cc(Cl)ccc21 [milademetan]
Patients with R/R AML; 14 patients
  Deaths or AEs leading to treatment discontinuation: No deaths or AEs leading to treatment discontinuation occurred; also recorded: No death or AEs that caused treatment discontinuation were noted
Patients with R/R AML; Total (n = 14)
  Skin infection, All grades: 1 (7.1) n (%)
  Skin infection, Grade ≥ 3: 1 (7.1) n (%)
Patients with R/R AML; human, in vivo
  Anemia, All grades: 5 (35.7) n (%)
  Anemia, Grade ≥ 3: 5 (35.7) n (%)
  Anemia, patients with TEAE regardless of causality: 35.7%
  Decreased appetite, All grades: 9 (64.3) n (%)
  Decreased appetite, Grade ≥ 3: 1 (7.1) n (%)
  Decreased appetite, patients with TEAE regardless of causality: 64.3%
  Diarrhea, All grades: 3 (21.4) n (%)
  Diarrhea, Grade ≥ 3: 1 (7.1) n (%)
  Dry mouth, All grades: 3 (21.4) n (%)
  Dry mouth, Grade ≥ 3: 0 (0.0) n (%)
  Febrile neutropenia, All grades: 7 (50.0) n (%)
  Febrile neutropenia, Grade ≥ 3: 7 (50.0) n (%)
  Febrile neutropenia, patients with TEAE regardless of causality: 50%
  Hypokalemia, All grades: 4 (28.6) n (%)
  Hypokalemia, Grade ≥ 3: 1 (7.1) n (%)
  Leukopenia, All grades: 1 (7.1) n (%)
  Leukopenia, Grade ≥ 3: 1 (7.1) n (%)
  Malaise, All grades: 3 (21.4) n (%)
  Malaise, Grade ≥ 3: 0 (0.0) n (%)
  Nausea, All grades: 6 (42.9) n (%)
  Nausea, Grade ≥ 3: 0 (0.0) n (%)
  Nausea, patients with TEAE regardless of causality: 42.9%
  Neutropenia, All grades: 2 (14.3) n (%)
  Neutropenia, Grade ≥ 3: 2 (14.3) n (%)
  Neutrophil count decreased, All grades: 1 (7.1) n (%)
  Neutrophil count decreased, Grade ≥ 3: 1 (7.1) n (%)
  Number of patients with SAEs: 4 patients
  Patients with TEAEs leading to study treatment interruption: 21.4%
  Patients with a TEAE that required dose reduction (acute kidney injury): 7.1%
  Patients with grade ≥ 3 TEAEs: 71.4%
  Pharyngitis, All grades: 1 (7.1) n (%)
  Pharyngitis, Grade ≥ 3: 1 (7.1) n (%)
  Platelet count decreased, All grades: 3 (21.4) n (%)
  Platelet count decreased, Grade ≥ 3: 3 (21.4) n (%)
  Pneumonia, All grades: 4 (28.6) n (%)
  Pneumonia, Grade ≥ 3: 3 (21.4) n (%)
  Serious TEAE: 4 (28.6) n (%)
  Stomatitis, All grades: 3 (21.4) n (%)
  Stomatitis, Grade ≥ 3: 0 (0.0) n (%)
  TEAE: 13 (92.9) n (%)
  TEAE by CTCAE grade ≤ 2: 3 (21.4) n (%)
  TEAE by CTCAE grade ≥ 3: 10 (71.4) n (%)
  TEAE leading to treatment interruption: decreased appetite: 1 n
  TEAE leading to treatment interruption: decreased neutrophil count: 1 n
  TEAE leading to treatment interruption: decreased platelet count: 1 n
  TEAE leading to treatment interruption: diarrhea: 1 n
  TEAE leading to treatment interruption: dysgeusia: 1 n
  TEAE leading to treatment interruption: febrile neutropenia: 2 n
  Thrombocytopenia, All grades: 4 (28.6) n (%)
  Thrombocytopenia, Grade ≥ 3: 4 (28.6) n (%)
  Tolerability: well tolerated up to 160 mg
  Vomiting, All grades: 4 (28.6) n (%)
  Vomiting, Grade ≥ 3: 0 (0.0) n (%)
  White blood cell count decreased, All grades: 1 (7.1) n (%)
  White blood cell count decreased, Grade ≥ 3: 1 (7.1) n (%)
Patients with R/R AML; human, in vivo, 28 days
  Recommended dose: 160 mg
Patients with R/R AML; in vivo
  Dose dependence of frequency of TEAEs that were grade ≥ 3, serious, or led to dose reduction/treatment interruption: No dose-dependent increase was observed
  Grade 4 TEAE: decreased neutrophil count: one
  Grade 4 TEAE: decreased platelet count: three
  Grade 4 TEAE: neutropenia: two
  Grade 4 TEAE: thrombocytopenia: two
  Number of reported SAEs (serious TEAEs): Five
  Other laboratory parameters (hematology, blood chemistry, urinalysis), vital signs, ECG parameters: No clinically relevant changes from baseline or consistent trends were observed
  SAE: febrile neutropenia: two
  SAE: pneumonia: three
Patients with R/R AML; up to 160 mg, QD 14/28 schedule
  Maximum tolerated dose (MTD): not reached
Tumor cells
  Antitumor effect in vitro: p53 status-dependent antitumor effect
[1]
  Maximum tolerated dose (MTD): 160 mg
